What was measured:
BE(2)-M17 cells = test: In vitro protection assays (MTS cell viability, LDH release) against neurotoxins; assay type: cell-based, human; conditions: for protection against 50 μM 6-OHDA exposure by PP2A inhibition (MTS cellular viability): BE(2)-M17 cells without elevated G-substrate, normalized to control
Procedure: Viability of the M17 cells was assessed following exposure to a variety of neurotoxins, each representing different aspects of PD pathology. 6-hydroxydopamine (6-OHDA) causes oxidative stress. MG-132 induces proteasome inhibition. And, MPP+ causes mitochondrial dysfunction by inhibiting Complex I. Cytotoxicity of M17 cells was determined using both cell viability assays and LDH release. G-substrate overexpression in M17 cells was confirmed by Western blot analysis (FIG. 3A) and by immunocytochemistry (FIG. 3B).
BE(2)-M17 cells were transduced with lentivirus expressing control or G-substrate with a multiplicity of infection 15. Cells were grown in Optimem™ (Invitrogen, Carlsbad, Calif.) supplemented with 10% heat-inactivated fetal calf serum (Hyclone, Logan, Utah), nonessential amino acid and sodium pyruvate. Cells were maintained at 37° C., in 5% CO2 humid atmosphere. For the bioassay, cells were plated in 96 well plates at 5000 per well. The next day, cells were treated with various concentrations of 6-OHDA (Sigma), MG-132 (Calbiochem) and MPP+ (Sigma) for 20 hrs. The supernatant was used to determine cytotoxicity using LDH release assay kit (Roche, Indianapolis, Ind.) and the cells remaining on the plate was used to determine cell viability using MTS based solution, CellTiter 96 AQueous One™ solution cell proliferation assay (Promega, Madison, Wis.).
Three different siRNAs for human G-substrate as described herein, a negative control siRNA, and a validated Akt siRNA (Ambion; Austin, Tex.) were used. Cells were plated in 96 well plates at 5000 per well with siRNAs and siPORT NeoFX transfection agent (Ambion, Austin, Tex.). After 48 hrs of incubation with siRNAs, each of the toxicants (6-OHDA, MG-132 or MPP+) were applied to the cells. Cell viability and cytotoxicity was measured after 20 hrs of toxin exposure.

VMAT2 = test: Western blot of VMAT2 expression in M17 cells; assay type: cell-based, human; conditions: naïve M17 cells
Text: BE(2)-M17 cells were used to investigate the interaction between G-substrate and α-synuclein, a known risk factor and possible causative agent in Parkinson's disease. […] Likewise, VMAT2 expression was reduced in naïve M17 cells following the reduction in endogenous G-substrate using siRNA (FIG. 10C).
M17 cells transiently and stably overexpression α-synuclein were transfected using the G-substrate lentiviral vector described above.
The PP2A regulation of VMAT 2 was investigated in M17 cells. PP2A levels were reduced using RNAi. […] The effect of PP2A inhibition was not generalized to other dopaminergic markers tested.
Cells and tissue samples were collected from and suspended in lysis buffer containing: 50 mM Tris-HCl, 0.15 M NaCl, 0.32 M sucrose, 1.0 mM EDTA, and 1% NP-40. In addition, phosphatase inhibitors I and II (1:100) and protease inhibitors (1:100) were added fresh prior to cell lysis (Sigma-Aldrich, P2850, P5276, and P8340 respectively). Following cell lysis, the homogenate was centrifuged, a portion of the supernatant was reserved for protein determination (BCA Assay, Pierce, Rockford, Ill.) and the remaining was stored at −20° C. 20 μg (in vitro cell preps) and 50 μg (tissue dissections) of solubilized protein were mixed 1:1 with sample buffer and boiled for 5 min. The samples and molecular weight standards were separated using the Criterion precast 10% SDS-polyacrylamide gel system (Bio-Rad, Hercules, Calif.). After electrophoresis, the proteins were electrically transferred to PVDF membranes at 100 V for 30 min. After transfer, blots were incubated in Tris-buffered saline with 0.1% Tween 20 (TBS-T) containing 5% BSA. Subsequently, blots were incubated with the following antibodies at 4° C. overnight (1:1000 unless otherwise stated): phospho-Akt (ser473), phospho-GSK3β (ser9), phospho-erk1/2, and phospho-p38 (Cell Signaling Technologies, Danvers, Mass.). HRP-conjugated secondary antibodies were then applied and immunoreactive bands were visualized with chemiluminescence (Amersham Biosciences, Arlington Heights, Ill.) and exposed onto film. Immunoblots were then stripped and re-probed for the expression of the total protein (Cell Signaling) and beta-actin (1:10 000) (Abcam) to serve as a loading control. Optical density analysis (NIH image) was used to determine the relative abundance of protein in each sample. The optical densities of the phospho epitopes were standardized to their respective total proteins and this value was used in the statistical analyses.

A9 DA neurons = assay type: in vivo, rat; conditions: rats, intra-striatal 6-OHDA
Text: Retrograde 6-OHDA lesioning within the striatum is a well-established method of creating progressive degeneration of A9 DA neurons. The loss of TH immunoreactivity reflects actual loss of DA neurons (Sauer, 1994).
The in vivo neuroprotective effects of G-substrate against 6-OHDA-induced toxicity was examined by injecting 6-OHDA into the corpus striatum of rats which previously had either G-substrate or control genes (empty vector or YFP) delivered to the midbrain using the lentivirus as described above. 6-OHDA induced approximately an 80% loss of TH-positive neurons in the midbrain (FIG. 12Q) and complete loss of TH immunoreactivity in the striatum (data not shown). The severity of the striatal insult in this paradigm precluded our ability to usefully measure protection of striatal nerve terminals. […] Furthermore, most of the surviving TH-positive neurons in lenti G-substrate-transduced rats were strongly G-substrate-positive (FIGS. 12G-12L).
Rats received two 2.75 μl stereotaxic injections of either lenti-empty vector+lenti-eGFP (n=19), lenti-G substrate+lenti-eGFP (n=19), or lenti-YFP (n=14) and delivered at a rate of 0.2 μl/min using microinfusion pumps (Stoelting Co, Wood Dale, Ill.) with 10 min wait times after each injection. Lenti-eGFP was added to each condition, excluding the YFP condition, to serve as an exogenous marker for surgical targeting (0.5 μl of the total 5.5 μl A volume). SN injection coordinates were as follows: site 1: AP −4.8, ML −2.0, DV −7.2; site 2: AP −5.5, ML −1.8, DV −7.2; and tooth bar set at −3.3. Virus titers (p24) were as follows: G substrate, 60 ng/μl; empty vector, 60 ng/μl; eGFP, 83 ng/μl; and YFP, 60 ng/μl.
Two weeks following lentiviral injection, animals (lenti-empty vector+lenti-eGFP (n=9), lenti-G substrate+lenti-eGFP (n=9), or lenti-YFP (n=14)) received three 2.5 μl stereotaxic injections of 3.0 μg/μl 6-OHDA (total dose=22.5 μg 6-OHDA) delivered at a rate of 0.5 μl/min and 5 min wait times after each injection. Striatum injection coordinates were as follows: site 1: AP +1.3, ML −2.8, DV −4.5; site 2: AP +0.2, ML, −3.0, DV −5.0; site 3: AP −0.6, ML −4.0, DV −5.5; and tooth bar set at −3.3. The lesion was allowed to progress for 3 weeks after which animals were sacrificed for post mortem analyses.
Brains were cut frozen in the coronal plane at a thickness of 40 μm on a sliding microtome and six series of sections were stored in cryoprotectant. Two full series of sections were processed for visualization of tyrosine hydroxylase (TH) via the biotin-labeled antibody procedure. Briefly, following several washes in a PBS solution containing 0.01% Triton X-100 (PBS-T), endogenous peroxidase was quenched in a 3% hydrogen peroxide solution and background staining was then inhibited in a 5% normal goat serum solution. […]

PP2A = PP2A activity assay (immunoprecipitated PP2A, phosphopeptide, Malachite Green); assay type: cell-based, human
Procedure: PP2A activity was measured in control BE(2)-M17 cells at various incubation times (t=0, 1, 2, 5 and 8 hr) after exposure to 50 μM 6-OHDA. […] Control, wild-type, and T123A G-substrate-expressing cells were then exposed to 50 μM 6-OHDA for 2 hours before measurement of PP2A activity.
PP2A activity was measured using a non-radioactive kit according to the manufacturer's instruction (Upstate Biotechnologies, Lake Placid, N.Y.). After 50 μM 6-OHDA exposure with various times, cells were harvested in 20 mM imidazole-HCl, 2 mM EDTA, 2 mM EGTA, pH7 with a protease inhibitor cocktail (Sigma). Protein concentrations of the lysates were measured using BCA assay (Pierce) and 500 μg of protein was immunoprecipitated using an anti-PP2A catalytic subunit antibody and protein A-Sepharose beads. Immunoprecipitated PP2A was then incubated with phosphopeptide (K-R-pT-I-R-R (SEQ ID NO: 8)) for 10 min at 37° C. Dephosphorylation of the phosphopeptide was assayed spectrophotometrically at 650 nm using Malachite Green.

[1] = lentiviral overexpression in BE(2)-M17 cells, toxin 20 hrs, compared to control

C=C1[C@@H](O)[C@@H]2O[C@]3(CC[C@H](/C=C/[C@@H](C)[C@@H]4CC(C)=C[C@@]5(O[C@H](C[C@@](C)(O)C(=O)O)CC[C@H]5O)O4)O3)CC[C@H]2O[C@@H]1[C@@H](O)C[C@H](C)[C@H]1O[C@@]2(CCCCO2)CC[C@H]1C [okadaic acid, reference compound]
protection against 50 μM 6-OHDA exposure by PP2A inhibition (MTS cellular viability) (BE(2)-M17 cells): none of these methods alone were protective
VMAT2 expression (VMAT2): increased VMAT2 levels

COC[C@@H]([C@H](O)[C@H](O)C(=O)NCC[C@H](C)c1nc(/C=C/C[C@@H]2O[C@]3(C[C@@H](O)[C@@H]2C)O[C@H]([C@H](C[C@H](O)[C@H](C)[C@H](O)[C@H](C)/C=C(C)/C(C)=C/C=C/C(C)=C\C#N)OC)[C@H](OP(=O)(O)O)C3(C)C)co1)N(C)C [calyculin A, reference compound]
protection against 50 μM 6-OHDA exposure by PP2A inhibition (MTS cellular viability) (BE(2)-M17 cells): none of these methods alone were protective
VMAT2 expression (VMAT2): increased VMAT2 levels

NCCc1cc(O)c(O)cc1O [6-OHDA, 6-hydroxydopamine, reference compound]
loss of TH-positive neurons in the midbrain (A9 DA neurons; 3 weeks): ~80%
loss of TH immunoreactivity in the striatum (A9 DA neurons; data not shown): complete loss
PP2A activity compared to basal activity (PP2A; control BE(2)-M17 cells, 50 μM 6-OHDA, t=1, 2, 8 hr (all times except t=5 hr)): significantly increased

T123A mutant G-substrate: mutant G-substrate with Thr to Ala point mutation at Thr 123 (T119A of human), overexpressed from a lentiviral vector
protection against 6-OHDA and MG-132 compared to the wild-type (BE(2)-M17 cells; lentiviral overexpression in BE(2)-M17 cells): significantly less effective
protection against MPP+-induced toxicity (cell viability, LDH release) (BE(2)-M17 cells; lentiviral overexpression in BE(2)-M17 cells, toxin 20 hrs): neither wild-type nor T123A mutant G-substrate overexpression was protective
neuroprotection against 6-OHDA toxicity (cell viability, LDH release) (BE(2)-M17 cells; [1]): neuroprotective
neuroprotection against MG-132 toxicity (cell viability, LDH release) (BE(2)-M17 cells; [1]): neuroprotective
PP2A activity in G-substrate-expressing cells (PP2A; BE(2)-M17 cells exposed to 50 μM 6-OHDA for 2 hours, versus control cells): reduced compared to controls, but not reduced as much as observed in the wild-type G-substrate-expressing cells

Reference: US8545834B2, “G-substrate for the treatment and prevention of parkinson's disease” (The McLean Hospital Corporation, priority 2007, dated 2013)
